Experimental data as given in the NIST ThermoML archive (doi:10.1016/j.jct.2005.01.017).

Test: xn = mol fraction of the nth substance listed
Conditions: 101 kPa, Liquid

CC1COC(=O)O1 (configuration not stated) [4-methyl-1,3-dioxolan-2-one] + Cc1cccc(C)c1
Conditions	mass density [kg/m3]
293.15 K, x2 = 0	1200.25
293.15 K, x2 = 0.0576	1173.76
293.15 K, x2 = 0.1263	1143.64
293.15 K, x2 = 0.1735	1123.83
293.15 K, x2 = 0.2267	1102.36
293.15 K, x2 = 0.2867	1079.14
293.15 K, x2 = 0.3548	1054
293.15 K, x2 = 0.4243	1029.6
293.15 K, x2 = 0.4671	1015.15
293.15 K, x2 = 0.5341	993.4
293.15 K, x2 = 0.5811	978.7
293.15 K, x2 = 0.6532	957.01
293.15 K, x2 = 0.7213	937.38
293.15 K, x2 = 0.7831	920.23
293.15 K, x2 = 0.8421	904.39
293.15 K, x2 = 0.9212	883.89
303.15 K, x2 = 0	1180.56
303.15 K, x2 = 0.0476	1159.4
303.15 K, x2 = 0.1178	1129.53
303.15 K, x2 = 0.1822	1103.48
303.15 K, x2 = 0.2248	1086.93
303.15 K, x2 = 0.2978	1059.75
303.15 K, x2 = 0.3681	1034.91
303.15 K, x2 = 0.4348	1012.48
303.15 K, x2 = 0.5038	990.33
303.15 K, x2 = 0.5598	973.11
303.15 K, x2 = 0.6139	957.05
303.15 K, x2 = 0.6738	939.89
303.15 K, x2 = 0.7355	922.85
303.15 K, x2 = 0.8021	905.11
303.15 K, x2 = 0.8837	884.19
303.15 K, x2 = 0.9475	868.42
313.15 K, x2 = 0	1161.28
313.15 K, x2 = 0.0564	1137.19
313.15 K, x2 = 0.1291	1107.58
313.15 K, x2 = 0.1781	1088.5
313.15 K, x2 = 0.2378	1066.16
313.15 K, x2 = 0.3021	1043.18
313.15 K, x2 = 0.3614	1022.91
313.15 K, x2 = 0.4243	1002.32
313.15 K, x2 = 0.4861	982.96
313.15 K, x2 = 0.5349	968.22
313.15 K, x2 = 0.5924	951.44
313.15 K, x2 = 0.6521	934.66
313.15 K, x2 = 0.7134	918.04
313.15 K, x2 = 0.7634	904.91
313.15 K, x2 = 0.8325	887.34
313.15 K, x2 = 0.9334	862.75
323.15 K, x2 = 0	1142.43
323.15 K, x2 = 0.0525	1120.74
323.15 K, x2 = 0.1203	1093.93
323.15 K, x2 = 0.1832	1070.24
323.15 K, x2 = 0.2498	1046.31
323.15 K, x2 = 0.3103	1025.54
323.15 K, x2 = 0.3667	1006.98
323.15 K, x2 = 0.4327	986.16
323.15 K, x2 = 0.4962	967.01
323.15 K, x2 = 0.5587	948.93
323.15 K, x2 = 0.6148	933.3
323.15 K, x2 = 0.6813	915.46
323.15 K, x2 = 0.7539	896.75
323.15 K, x2 = 0.8013	884.94
323.15 K, x2 = 0.8625	870.1
323.15 K, x2 = 0.9346	853.17
333.15 K, x2 = 0	1123.99
333.15 K, x2 = 0.0478	1104.87
333.15 K, x2 = 0.1249	1075.39
333.15 K, x2 = 0.1942	1050.25
333.15 K, x2 = 0.2571	1028.52
333.15 K, x2 = 0.3245	1006.29
333.15 K, x2 = 0.3878	986.36
333.15 K, x2 = 0.4313	973.16
333.15 K, x2 = 0.5138	949.16
333.15 K, x2 = 0.582	930.28
333.15 K, x2 = 0.6842	903.43
333.15 K, x2 = 0.7323	891.34
333.15 K, x2 = 0.7723	881.53
333.15 K, x2 = 0.8248	868.96
333.15 K, x2 = 0.8833	855.34
333.15 K, x2 = 0.9429	841.84
343.15 K, x2 = 0	1105.98
343.15 K, x2 = 0.0634	1081.55
343.15 K, x2 = 0.1278	1057.84
343.15 K, x2 = 0.1798	1039.5
343.15 K, x2 = 0.2348	1020.82
343.15 K, x2 = 0.3013	999.21
343.15 K, x2 = 0.3703	977.83
343.15 K, x2 = 0.4259	961.33
343.15 K, x2 = 0.4829	945.05
343.15 K, x2 = 0.5329	931.26
343.15 K, x2 = 0.5928	915.31
343.15 K, x2 = 0.6528	899.92
343.15 K, x2 = 0.7132	884.96
343.15 K, x2 = 0.7829	868.32
343.15 K, x2 = 0.8532	852.13
343.15 K, x2 = 0.9253	836.07
353.15 K, x2 = 0	1088.38
353.15 K, x2 = 0.0622	1065.11
353.15 K, x2 = 0.1199	1044.44
353.15 K, x2 = 0.1874	1021.32
353.15 K, x2 = 0.2401	1004.03
353.15 K, x2 = 0.3149	980.58
353.15 K, x2 = 0.3871	959.07
353.15 K, x2 = 0.451	940.91
353.15 K, x2 = 0.5249	920.84
353.15 K, x2 = 0.5832	905.67
353.15 K, x2 = 0.6591	886.72
353.15 K, x2 = 0.7249	870.97
353.15 K, x2 = 0.7719	860.05
353.15 K, x2 = 0.8529	841.86
353.15 K, x2 = 0.8941	832.88
353.15 K, x2 = 0.9483	821.31
